The target in one assay is p38α (Homo sapiens, UniProt Q16539). In words: p38 in-vitro HTRF enzyme assay. The class given is biochemical. Conditions: recombinant human enzyme, read-out: p38a IC50. As for the experimental part: p38 In-Vitro HTRF Enzyme Assay
The compounds of the invention can be tested for their respective affinities for the p38 protein using a conventional p38 in-vitro enzyme activity assay. For example, a P38-alpha HTRF assay may be used to measure the protein's in-vitro phosphorylation activity, and the data analyzed using time resolved fluorimetry techniques (FRET). A p38 HTRF assay is as follows. The kinase reaction buffer for p38α, p38β, p38δ and p38γ HTRF assays consists of 50 mM Tris-pH 7.5, 5 mM MgCl2, 0.1 mg/mL BSA, 100 μM Na3VO4 and 0.5 mM DTT. The HTRF detection buffer contains 100 mM HEPES-pH 7.5, 100 mM NaCl, 0.1% BSA, 0.05% Tween-20, and 10 mM EDTA. Each compound was dissolved in 100% DMSO and serially diluted (3 fold, 10 point) in a polypropylene 96-well microtiter plate (drug plate). The final starting concentration of the compound in the p38α […]and p38β enzymatic assays was about 1 μM. The final starting concentration of each compound in the p38δ and p38γ enzymatic assays was about 10 μM. The p38α, p38β, p38δ and p38γ kinase reactions were carried out in a polypropylene 96-well black round bottom assay plate in total volume of 30 μL kinase reaction buffer. Appropriate concentration of purified and activated enzyme (recombinant human) was mixed with indicated concentration of ATP and 100 nM GST-ATF2-Avitag, in the presence or absence (HI control) of each compound. In the absence of enzyme, the background was measured as LO control. HI controls and LO controls contained only DMSO. The reaction was allowed to incubate for 1 hour at RT. […] After 60 minutes incubation at room temperature, the assay plate was read in a Discovery Plate Reader. The wells were excited with coherent 320 nm light and the ratio of delayed ([…] post excitation) emissions at […] (native europium fluorescence) and 665 nm (europium fluorescence transferred to allophycocyanin—an index of substrate phosphorylation) was determined (Park et al, 1999). The resulting data was analyzed by taking the proportion of substrate phosphorylated in the kinase reaction in the presence of each individual compound and comparing it with that phosphorylated in the presence of DMSO vehicle alone (HI control). The data was calculated using the formula: % control (POC)=(compound−average LO)/(average HI−average LO)*100. Data (consisting of POC and inhibitor concentration in μM) was fitted to a 4-parameter equation (y=A+((B−A)/(1+((x/C)^D))), where A is the minimum y (POC) value, B is the maximum y (POC), C is the x (compound concentration) at the point of inflection and D is the slope factor, using a Levenburg-Marquardt non-linear regression algorithm. The inhibition constant (Ki) of the inhibitor was estimated from the IC50 (compound concentration at the point of inflection C) using the Cheng-Prussof equation: Ki=IC50/(1+S/Km), where S is the ATP substrate concentration, and Km is the Michaelis constant for ATP as determined experimentally. All results were expressed as the mean±the standard error of the mean. Data acquisition and non-linear regression algorithms were performed using Activity Base v5.2 and XLfit software v4.1 respectively. Additional assay information may be obtained in Park Y W, Cummings R T, Wu L, et al. Homogeneous Proximity Tyrosine Kinase Assays: Scintillation Proximity Assay versus Homogeneous Time-Resolved Fluorescence. Analytical Biochemistry. 1999; 269: 94-104.

The test system of assay [1] is THP1 cells (LPS-induced TNF-α). The assay can be described thus: Lipopolysaccharide-activated THP1 cell TNF production assay. The note with it: Homo sapiens, THP-1, TNF-α secretion, read-out: THP-1 cell based assay IC50. Here is the method:
Lipopolysaccharide-Activated THP1 Cell TNF Production Assay
THP1 cells are resuspended in fresh THP1 media (RPMI 1640, 10% heat-inactivated FBS, 1XPGS, 1XNEAA, plus 30 μM βME) at a concentration of 1E6/mL. One hundred microliters of cells per well are plated in a polystyrene 96-well tissue culture. One microgram per mL of bacterial LPS is prepared in THP1 media and is transferred to the wells. Test compounds are dissolved in 100% DMSO and are serially diluted 3-fold in a polypropylene 96-well microtiter plate (drug plate). HI control and LO control wells contain only DMSO. One microliter of test compound from the drug plate followed by 10 μL of LPS are transferred to the cell plate. The treated cells are induced to synthesize and secrete TNF-α at 37° C. for 3 h. Forty microliters of conditioned media are transferred to a 96-well polypropylene plate containing 110 μL of ECL buffer (50 mM Tris-HCl pH 8.0, 100 mM NaCl, 0.05% Tween 20, 0.05% NaN3 and 1% FBS) supplemented with 0.44 nM MAB610 monoclonal Ab (R&D Systems), 0.34 nM ruthenylated AF210NA polyclonal Ab (R&D Systems) and 44 μg/mL sheep anti-mouse M280 Dynabeads (Dynal). After a 2 h incubation at room temperature with shaking, the reaction is read on the ECL M8 Instrument (IGEN Inc.). A low voltage is applied to the ruthenylated TNF-α immune complexes, which in the presence of TPA (the active component in Origlo), results in a cyclical redox reaction generating light at […]. The amount of secreted TNF-α in the presence of compound compared with that in the presence of DMSO vehicle alone (HI control) is calculated using the formula: % control (POC)=(cpd−average LO)/(average HI−average LO)*100. Data (consisting of POC and inhibitor concentration in μM) is fitted to a 4-parameter equation (y=A+((B−A)/(1+((x/C)^D))), where A is the minimum y (POC) value, B is the maximum y (POC), C is the x (cpd concentration) at the point of inflection and D is the slope factor) using a Levenburg-Marquardt non-linear regression algorithm.

For a further assay, the system named is IL-1. In words: LPS induced IL-1 cell assay (LPS-induced release of IL-1β from monocytes). It counts as cell-based. Conditions: Homo sapiens, Monocyte; LPS-activated monocytes. Here is the method: Lipopolysaccharide-Activated Monocyte TNF Production Assay
Test compounds were evaluated in vitro for the ability to inhibit the production of TNF by monocytes activated with bacterial lipopolysaccharide (LPS). Fresh residual source leukocytes (a byproduct of plateletpheresis) were obtained from a local blood bank, and peripheral blood mononuclear cells (PBMCs) were isolated by density gradient centrifugation on Ficol-Paque Plus (Pharmacia). PBMCs were suspended at 2×10^6/mL in DMEM supplemented to contain 2% FCS, 10 mM, 0.3 mg/mL […], 100 U/mL penicillin G and […] streptomycin sulfate (complete media). Cells were plated into Falcon flat bottom, 96 well culture plates (200 μL/well) and cultured overnight at 37° C. and 6% CO2. Non-adherent cells were removed by washing with 200 μl/well of fresh medium. Wells containing adherent cells (˜70% monocytes) were replenished with 100 μL of fresh medium.
Preparation of Test Compound Stock Solutions
Test compounds were dissolved in […]. Compound stock solutions were prepared to an initial concentration of […]. Stocks were diluted initially to 20-200 μM in complete media. Nine two-fold serial dilutions of each compound were then prepared in complete medium.
Treatment of Cells with Test Compounds and Activation of TNF Production with Lipopolysaccharide
One hundred microliters of each test compound dilution were added to microtiter wells containing adherent monocytes and 100 μL complete medium. Monocytes were cultured with test compounds for 60 min at which time 25 μL of complete medium containing 30 ng/mL lipopolysaccharide from E. coli K532 were added to each well. Cells were cultured an additional 4 hrs. Culture supernatants were then removed and TNF presence in the supernatants was quantified using an ELISA.
Compounds of the invention can also be shown to inhibit LPS-induced release of IL-1β, IL-6 and/or IL-8 from monocytes by measuring concentrations of IL-1β, IL-6 and/or IL-8 by methods well known to those skilled in the art. […] Thus, the compounds of the invention may lower elevated levels of TNF-α, IL-1, IL-6, and IL-8 levels. Reducing elevated levels of these inflammatory cytokines to basal levels or below is favorable in controlling, slowing progression, and alleviating many disease states.

Sequence of p38α (Q16539 whole entry): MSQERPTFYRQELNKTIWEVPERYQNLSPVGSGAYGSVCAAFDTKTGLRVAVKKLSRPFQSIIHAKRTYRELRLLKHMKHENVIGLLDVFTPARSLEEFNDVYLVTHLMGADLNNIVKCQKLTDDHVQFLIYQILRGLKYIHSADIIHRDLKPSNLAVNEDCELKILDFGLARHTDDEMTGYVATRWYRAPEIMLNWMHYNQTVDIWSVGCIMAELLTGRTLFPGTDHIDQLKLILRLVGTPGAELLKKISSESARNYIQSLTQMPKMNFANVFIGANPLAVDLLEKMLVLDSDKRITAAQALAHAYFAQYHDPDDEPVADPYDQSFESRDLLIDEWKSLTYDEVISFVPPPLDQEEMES

As for `Cc1ccc(C(=O)NC(C)C)cc1-c1ccc2c(c1)nnn2C(C)C` [Example 4, 4-methyl-N-(1-methylethyl)-3-(1-(1-methylethyl)-1H-1,2,3-benzotriazol-5-yl)benzamide], the IC50 was less than 0.025 µM at p38α, 0.25 to 1 µM in assay [1] and 1 to 5 µM in the assay with IL-1.

`Cc1ccc(C(=O)NC2CC2)cc1-c1ccc2c(c1)nnn2C(C)C` [Example 5, N-cyclopropyl-4-methyl-3-(1-(1-methylethyl)-1H-benzotriazol-5-yl)benzamide]: the IC50 at p38α is less than 0.025 µM; in assay [1], 0.025 to 0.1 µM; with IL-1 it was 1 to 5 µM.

With `Cc1c(F)cc(C(=O)NC2CC2)cc1-c1ccc2c(c1)nnn2-c1ccccc1Cl` [Example 6, 3-(1-(2-chlorophenyl)-1H-benzotriazol-5-yl)-N-cyclopropyl-5-fluoro-4-methylbenzamide], the figures for the IC50 (on p38α; in assay [1]; in the assay with IL-1) were less than 0.025 µM, less than 0.025 µM and 0.1 to 0.25 µM, respectively.

Consider `Cc1ccc(C(=O)NC2CC2)cc1-c1ccc2c(c1)nnn2-c1ccccc1Cl` [Example 7, 3-(1-(2-chlorophenyl)-1H-benzotriazol-5-yl)-N-cyclopropyl-4-methylbenzamide], for which the 50% inhibitory concentration (IC50) is less than 0.025 µM on p38α, 0.025 to 0.1 µM in assay [1] and 1 to 5 µM with IL-1.

Turning to `Cc1cc(F)ccc1-n1nnc2cc(-c3cc(C(=O)NC4CC4)cc(F)c3C)ccc21` [Example 8, N-cyclopropyl-3-fluoro-5-(1-(4-fluoro-2-methylphenyl)-1H-benzotriazol-5-yl)-4-methylbenzamide], the IC50 on p38α was less than 0.025 µM; in assay [1] it was less than 0.025 µM; with IL-1, 0.1 to 0.25 µM.

With `Cc1c(F)cc(C(=O)Nc2ccnn2C)cc1-c1ccc2c(c1)nnn2-c1ccccc1Cl` [Example 9, 3-(1-(2-chlorophenyl)-1H-benzotriazol-5-yl)-5-fluoro-4-methyl-N-(1-methyl-1H-pyrazol-5-yl)benzamide], the concentration for half-maximal inhibition (IC50) on p38α was less than 0.025 µM; in assay [1], less than 0.025 µM; in the assay on IL-1, 0.025 to 0.1 µM.

On to `Cc1c(F)cc(C(=O)NC2CC2)cc1-c1ccc2c(c1)nnn2C(C)(C)C` [Example 10, N-cyclopropyl-3-(1-(1,1-dimethylethyl)-1H-benzotriazol-5-yl)-5-fluoro-4-methylbenzamide], for which the IC50 is less than 0.025 µM on p38α, less than 0.025 µM in assay [1] and 1 to 5 µM in the assay with IL-1.

As to `Cc1c(F)cc(C(=O)NC2CC2)cc1-c1ccc2c(c1)nnn2C1CCOCC1` [Example 11, N-cyclopropyl-3-fluoro-4-methyl-5-(1-(tetrahydro-2H-pyran-4-yl)-1H-benzotriazol-5-yl)benzamide], the IC50 (in assay [1]; in the assay on IL-1) was 0.025 to 0.1 µM each time.

Values taken from US8314131B2, “Triazole fused heteroaryl compounds and methods of use thereof” (Amgen Inc., priority 2007, dated 2012).
